Source: patent publication US20240109969A1, “Dosing Regimen for Therapies Comprising Bispecific Anti-EGFR/C-Met Antibodies” (Janssen Biotech, Inc., priority 2022, published 2024)
Entries after “also recorded” stand apart in the source; their conditions may differ.

How the values were obtained:
P-glycoprotein (P-gp) = P-glycoprotein (P-gp) (Homo sapiens, UniProt P08183); settings: cited from earlier work
[1] = biological target: T1, multidrug resistance protein 4 (MRP4) (Homo sapiens, UniProt O15439); settings: cited from earlier work
T1 sequence (O15439 1-1325): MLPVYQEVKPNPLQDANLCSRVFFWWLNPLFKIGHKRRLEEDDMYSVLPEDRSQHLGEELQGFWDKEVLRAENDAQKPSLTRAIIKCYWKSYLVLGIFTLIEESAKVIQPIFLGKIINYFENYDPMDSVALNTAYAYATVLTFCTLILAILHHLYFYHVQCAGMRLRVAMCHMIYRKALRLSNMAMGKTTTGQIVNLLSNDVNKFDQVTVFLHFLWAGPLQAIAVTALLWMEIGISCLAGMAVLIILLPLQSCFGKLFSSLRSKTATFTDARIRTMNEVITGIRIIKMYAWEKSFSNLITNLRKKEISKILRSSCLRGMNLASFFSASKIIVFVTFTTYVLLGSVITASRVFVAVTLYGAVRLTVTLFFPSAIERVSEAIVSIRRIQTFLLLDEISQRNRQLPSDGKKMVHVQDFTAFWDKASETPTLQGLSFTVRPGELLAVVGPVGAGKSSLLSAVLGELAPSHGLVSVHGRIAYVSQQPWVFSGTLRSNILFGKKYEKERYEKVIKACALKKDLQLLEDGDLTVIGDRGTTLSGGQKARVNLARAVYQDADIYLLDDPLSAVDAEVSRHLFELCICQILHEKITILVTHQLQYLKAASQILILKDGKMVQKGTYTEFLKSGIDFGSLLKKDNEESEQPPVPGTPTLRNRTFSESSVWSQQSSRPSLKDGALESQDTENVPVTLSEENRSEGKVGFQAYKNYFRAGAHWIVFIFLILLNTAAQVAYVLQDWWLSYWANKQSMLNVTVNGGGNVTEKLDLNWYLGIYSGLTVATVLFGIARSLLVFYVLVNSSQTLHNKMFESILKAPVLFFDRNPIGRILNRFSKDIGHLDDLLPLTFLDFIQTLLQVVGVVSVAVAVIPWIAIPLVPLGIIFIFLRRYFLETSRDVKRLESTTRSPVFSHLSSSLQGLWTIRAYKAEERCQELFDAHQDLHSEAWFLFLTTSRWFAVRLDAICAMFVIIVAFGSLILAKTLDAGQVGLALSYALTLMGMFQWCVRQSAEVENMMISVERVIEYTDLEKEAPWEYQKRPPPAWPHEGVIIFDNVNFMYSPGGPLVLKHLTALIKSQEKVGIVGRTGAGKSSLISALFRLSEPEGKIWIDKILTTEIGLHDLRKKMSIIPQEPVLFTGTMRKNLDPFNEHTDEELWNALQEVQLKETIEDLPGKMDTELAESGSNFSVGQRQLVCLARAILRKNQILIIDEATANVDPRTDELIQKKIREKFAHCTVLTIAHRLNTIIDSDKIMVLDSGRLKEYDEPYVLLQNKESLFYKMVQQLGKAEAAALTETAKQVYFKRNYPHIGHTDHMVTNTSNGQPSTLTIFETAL

[2] = biological target: T2, breast cancer resistance protein (BCRP) (Homo sapiens, UniProt Q9UNQ0); settings: cited from earlier work
T2 sequence (Q9UNQ0 1-655): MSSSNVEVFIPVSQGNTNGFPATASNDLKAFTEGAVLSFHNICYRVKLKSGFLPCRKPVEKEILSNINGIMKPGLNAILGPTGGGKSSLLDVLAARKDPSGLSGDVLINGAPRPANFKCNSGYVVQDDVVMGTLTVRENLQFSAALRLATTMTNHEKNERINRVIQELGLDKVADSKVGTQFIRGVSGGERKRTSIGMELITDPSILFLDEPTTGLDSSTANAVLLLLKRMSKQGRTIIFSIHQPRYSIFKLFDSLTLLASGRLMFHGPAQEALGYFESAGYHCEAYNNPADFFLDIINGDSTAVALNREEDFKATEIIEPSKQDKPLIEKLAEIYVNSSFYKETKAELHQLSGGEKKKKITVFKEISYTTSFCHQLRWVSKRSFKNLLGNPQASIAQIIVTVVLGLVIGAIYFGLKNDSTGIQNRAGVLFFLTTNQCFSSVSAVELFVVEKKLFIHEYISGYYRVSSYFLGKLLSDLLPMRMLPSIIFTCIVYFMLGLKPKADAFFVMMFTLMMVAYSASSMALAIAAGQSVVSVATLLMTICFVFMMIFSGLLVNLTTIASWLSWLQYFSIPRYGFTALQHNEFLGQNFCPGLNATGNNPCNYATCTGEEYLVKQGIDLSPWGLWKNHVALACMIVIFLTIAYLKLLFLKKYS

[3] = biological target: T3, Organic Cation Transporter 1 (OCT1) (Homo sapiens, UniProt O15245); settings: cited from earlier work
T3 sequence (O15245 1-554): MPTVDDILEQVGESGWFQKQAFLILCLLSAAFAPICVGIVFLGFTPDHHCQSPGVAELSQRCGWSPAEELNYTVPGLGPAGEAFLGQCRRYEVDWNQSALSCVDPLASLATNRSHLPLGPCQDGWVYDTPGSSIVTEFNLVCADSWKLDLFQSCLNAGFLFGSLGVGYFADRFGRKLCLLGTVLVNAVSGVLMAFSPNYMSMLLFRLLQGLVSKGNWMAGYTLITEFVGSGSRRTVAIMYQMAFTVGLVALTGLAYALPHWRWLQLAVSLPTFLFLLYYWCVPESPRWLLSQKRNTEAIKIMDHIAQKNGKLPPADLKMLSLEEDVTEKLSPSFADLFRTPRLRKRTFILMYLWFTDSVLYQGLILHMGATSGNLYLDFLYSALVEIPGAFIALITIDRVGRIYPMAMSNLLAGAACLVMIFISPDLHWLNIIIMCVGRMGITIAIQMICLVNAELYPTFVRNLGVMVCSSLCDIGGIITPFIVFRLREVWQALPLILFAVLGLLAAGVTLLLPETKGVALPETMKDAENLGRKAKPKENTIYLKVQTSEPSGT

Sequence of P-glycoprotein (P-gp) (P08183 whole entry): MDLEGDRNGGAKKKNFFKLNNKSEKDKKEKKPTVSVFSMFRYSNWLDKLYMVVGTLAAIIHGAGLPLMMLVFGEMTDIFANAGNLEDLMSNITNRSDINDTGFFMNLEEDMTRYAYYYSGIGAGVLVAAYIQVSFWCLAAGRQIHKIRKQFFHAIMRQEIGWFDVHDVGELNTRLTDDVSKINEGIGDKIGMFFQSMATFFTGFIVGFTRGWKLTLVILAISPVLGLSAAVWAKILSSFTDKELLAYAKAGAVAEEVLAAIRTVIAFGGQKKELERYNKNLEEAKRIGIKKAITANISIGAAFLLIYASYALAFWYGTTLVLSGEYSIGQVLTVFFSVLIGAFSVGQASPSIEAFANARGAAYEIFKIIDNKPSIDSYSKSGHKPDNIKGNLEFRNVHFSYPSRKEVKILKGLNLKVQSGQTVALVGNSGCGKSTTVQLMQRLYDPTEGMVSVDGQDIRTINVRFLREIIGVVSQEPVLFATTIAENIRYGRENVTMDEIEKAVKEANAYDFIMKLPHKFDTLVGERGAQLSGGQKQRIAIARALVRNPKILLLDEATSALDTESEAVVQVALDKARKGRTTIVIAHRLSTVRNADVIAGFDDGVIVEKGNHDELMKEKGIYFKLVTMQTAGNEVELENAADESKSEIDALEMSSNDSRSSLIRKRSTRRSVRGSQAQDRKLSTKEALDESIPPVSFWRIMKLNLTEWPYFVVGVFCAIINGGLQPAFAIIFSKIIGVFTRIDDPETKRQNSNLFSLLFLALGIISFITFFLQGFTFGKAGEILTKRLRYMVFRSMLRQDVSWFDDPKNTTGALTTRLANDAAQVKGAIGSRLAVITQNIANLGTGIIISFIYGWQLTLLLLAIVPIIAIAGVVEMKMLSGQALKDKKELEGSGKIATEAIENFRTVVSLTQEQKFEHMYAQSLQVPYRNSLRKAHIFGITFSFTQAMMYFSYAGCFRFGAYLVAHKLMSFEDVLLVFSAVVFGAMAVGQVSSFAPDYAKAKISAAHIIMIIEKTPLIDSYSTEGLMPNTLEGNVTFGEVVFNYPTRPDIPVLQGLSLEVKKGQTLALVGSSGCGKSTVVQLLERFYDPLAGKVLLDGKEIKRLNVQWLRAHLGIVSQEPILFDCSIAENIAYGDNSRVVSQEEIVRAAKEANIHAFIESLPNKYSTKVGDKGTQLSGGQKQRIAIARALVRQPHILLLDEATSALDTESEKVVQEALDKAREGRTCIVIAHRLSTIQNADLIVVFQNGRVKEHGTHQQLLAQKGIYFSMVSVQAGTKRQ

Row | Compound | inhibition of P-gp (P-glycoprotein (P-gp)) | inhibition of MRP4 [1] | inhibition of BCRP [2] | inhibition of OCT1 [3] | impact of chemotherapy on amivantamab exposure (preliminary cycle 1 PK data (n=9), FIG. 3A-C) | amivantamab trough concentration / exposure, Q3W (21-day cycle) versus monotherapy Q2W (28-day cycle, 1050/1400 mg) (preliminary, FIG. 4A-B)
1 | C=CC(=O)Nc1cc(Nc2nccc(-n3cc(CN(C)C)c(-c4ccccc4)n3)n2)c(OC)cc1N1CCOCC1 [Lazertinib, N-(5-(4-(4-((dimethylamino)methyl)-3-phenyl-1H-pyrazol-1-yl)pyrimidin-2-ylamino)-4-methoxy-2-morpholinophenyl)acrylamide] | inhibitor | inhibitor | inhibitor | inhibitor | – | –
2 | amivantamab | – | – | – | – | no impact; also recorded: not impacted | Similar
